From patent US20050181474A1, “Transport peptides and uses therefor” (priority 2002, published 2005) come the findings set out here.

Experiment [1] relates to endothelial cells (HUVEC cells). The experiment is described as follows: Internalization of rhodamine-labeled peptide into endothelial cells. Format: cell-based, human. Particulars: FIG. 3A. The source says: (§1) To test the properties of the peptides defined, small scale synthesis of these peptides was ordered, labeled with rhodamine for fluorescent localization, from the Keck facility at Yale University. They were then used in in vitro and in vivo experiments to investigate the ability of these peptides to enter cells and tissues.
(§2) FIGS. 3A and 3B show pictures depicting highly efficient internalization of these peptides into cells in culture. One such transport peptide is RRGRRRGR.

Experiment [2] has as its system parenchyma of the heart (myocardium). The experiment is described as follows: Uptake of rhodamine-labeled peptide into heart after coronary infusion. Type of experiment: in vivo, mouse. Particulars: single pass infusion through the coronary circulation, FIGS. 4A-C. The source says: In experiments designed to test the ability of these peptides to cross the endothelium and enter cells in vivo, synthetic transport peptides labeled with the fluorescent marker rhodamine were infused into the coronary circulation of mice. […] Peptides selected for internalization were capable of internalizing into the myocardium efficiently.
One such transport peptide is RRGRRRGR.

Experiment [3] has as its system rat aortic and adult human smooth muscle cells. The experiment is described as follows: Internalization of rhodamine-labeled peptide into smooth muscle cells. Format: cell-based. The note with it: FIG. 3B.
From the text: as §1, §2

Experiment [4] deals with heart, skeletal muscle, skin, brain. The experiment is described as follows: In vivo translocation of peptide-displaying phage into tissue parenchyma. Details: species or system mouse. How it is done: (§3) Another method used was to perfuse murine hearts ex-vivo on a Langendorf apparatus, administer the phage through the coronary circulation, and then rescue the phage that entered the myocardium. In vivo experiments were also done in which phage was injected into the general circulation of a mouse, any phage binding to the vasculature was removed by treatment with an enzyme solution, and then phage that had entered tissue parenchyma were rescued and enriched.

Experiment [5] relates to skin. The experiment is described as follows: Homing of peptide after intravenous delivery in vivo. The arrangement: species or system mouse. On the procedure:
as §3

With RRGRRRGR (Transport peptide), the “uptake (internalization) into endothelial cells” value in experiment [1] is on record as “efficient uptake”. In experiment [2], the “uptake into the parenchyma of the heart” value is reported as “efficient uptake”. Further, in experiment [3], the “uptake (internalization) into smooth muscle cells” value was “efficient uptake”.

With LLAVPAA (Transport peptide), the “crossing the blood brain barrier and entry into the brain” value in experiment [4] is “appears capable of crossing the blood brain barrier and entry into the brain”. In addition, in experiment [4] (phage displaying the peptide, heart, skeletal muscle, skin), the “translocating phage into tissues” value was “capable of translocating phage into heart, skeletal muscle, skin”.

Take GSRHPPL (Transport peptide): in experiment [5], the “homing (tissue targeting)” value is on record as “appears to significantly target skin”.
